Here are results for 13 compounds from PubChem BioAssay (NCI).

The structures appear in SMILES notation.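 Grown in 96-well plates, cells were treated for 48 hours with each compound at five concentrations. Insufficient inhibition: endpoint recorded as highest concentration tested. The concentration for 50% growth inhibition is given as GI50. Definition used: TGI = concentration required for complete inhibition of growth.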

Test systems include SNB-75 CNS; IGROV1 ovarian; MDA-MB-435; SNB-19 CNS; NCI-H522 lung; SK-MEL-2 melanoma; HOP-62 NSCLC; SR leukemia; LOX IMVI melanoma; MDA-MB-231 breast.
What all share (test): NCI tumour cell line growth inhibition, 48 h

As for `CCC(C(=O)[C@@H](C)[C@@H](O)[C@H](C)[C@@H]1O[C@@H]([C@@H](CC)C(=O)ONC(=O)c2ccccc2)CC[C@@H]1C)[C@H]1O[C@]2(C=CC(=O)[C@]3(CC[C@@](C)([C@H]4CC[C@](O)(CC)[C@H](C)O4)O3)O2)[C@H](C)C[C@@H]1C` (stereo not given in full), the GI50 with SNB-75 CNS is 0.238 µM; in the assay with IGROV1 ovarian it was 0.198 µM; in the assay on MDA-MB-435, 1.11 µM; with SNB-19 CNS, 0.588 µM; with NCI-H522 lung, 0.0547 µM; in the assay with SK-MEL-2 melanoma, 1.07 µM. Also, the GI50 is 0.161 µM in the assay on HOP-62 NSCLC, 0.0674 µM in the assay on SR leukemia, 0.316 µM in the assay on LOX IMVI melanoma and 0.295 µM in the assay with MDA-MB-231 breast. Also, the TGI in the assay with SNB-75 CNS was 2.04 µM; with IGROV1 ovarian it was 0.631 µM; in the assay with MDA-MB-435, 2.88 µM; with SNB-19 CNS, 3.43 µM; with NCI-H522 lung, 1.4 µM; in the assay on SK-MEL-2 melanoma it was 2.91 µM. The TGI in the assay with HOP-62 NSCLC was found to be 1.95 µM; in the assay on SR leukemia it was 0.617 µM; in the assay with LOX IMVI melanoma it was 1.84 µM; with MDA-MB-231 breast, 1.63 µM.
With `O=C(O)c1cc(Cl)cc(Cc2cc(Cl)cc(C(=O)O)c2O)c1O`, the TGI with SNB-75 CNS, in the assay with IGROV1 ovarian, in the assay with MDA-MB-435, in the assay on SNB-19 CNS, in the assay with NCI-H522 lung and in the assay on SK-MEL-2 melanoma was above 100 µM each time. For the same compound, the TGI in the assay on HOP-62 NSCLC, with SR leukemia, with LOX IMVI melanoma and with MDA-MB-231 breast was above 100 µM in each case.
For `Nc1nc(N)c(-c2ccc(Cl)c(Cl)c2)c(CP(Cl)(Cl)(Cl)Br)n1`, the GI50 is 39.7 µM in the assay on SNB-75 CNS; 8.92 µM in the assay on IGROV1 ovarian; 4.4 µM with MDA-MB-435; 31.9 µM in the assay with SNB-19 CNS; 21.2 µM in the assay with NCI-H522 lung; 17.9 µM with SK-MEL-2 melanoma. Moreover, the GI50 with HOP-62 NSCLC was 72.7 µM; in the assay with SR leukemia it was 10.2 µM; in the assay on LOX IMVI melanoma it was 2.72 µM; in the assay on MDA-MB-231 breast it was 9.62 µM. In addition, the TGI was above 100 µM in the assay with SNB-75 CNS; 61.8 µM with IGROV1 ovarian; 84.3 µM with MDA-MB-435; above 100 µM in the assay on SNB-19 CNS; above 100 µM in the assay on NCI-H522 lung; 48.7 µM in the assay on SK-MEL-2 melanoma. Moreover, the TGI in the assay on HOP-62 NSCLC, in the assay with SR leukemia, in the assay on LOX IMVI melanoma and in the assay on MDA-MB-231 breast was above 100 µM throughout.
As to `C=CCN1C(=O)[C@]2(SC1=S)[C@H](c1cccc(Cl)c1)CN(C)[C@]21C(=O)NC2C=CC(Cl)=C[C@H]21` (stereo not given in full), the GI50 was 2.37 µM in the assay with SNB-75 CNS; 2.98 µM with IGROV1 ovarian; 5.9 µM in the assay with MDA-MB-435; 4.83 µM in the assay with SNB-19 CNS; 5.79 µM in the assay with NCI-H522 lung; 8.13 µM in the assay with SK-MEL-2 melanoma. The GI50 is 3.59 µM with HOP-62 NSCLC, 1.68 µM with SR leukemia, 1.73 µM in the assay with LOX IMVI melanoma and 2 µM with MDA-MB-231 breast. For the same compound, the TGI in the assay with SNB-75 CNS amounted to 18.2 µM; in the assay on IGROV1 ovarian, 16.5 µM; in the assay on MDA-MB-435, 21.5 µM; in the assay with SNB-19 CNS, 16.8 µM; in the assay on NCI-H522 lung it was 20.6 µM; in the assay with SK-MEL-2 melanoma, 24.2 µM. Also, the TGI with HOP-62 NSCLC worked out at 16.2 µM; with SR leukemia it was 4.48 µM; in the assay on LOX IMVI melanoma, 3.95 µM; in the assay with MDA-MB-231 breast, 8.72 µM.
As to `C=C1C(=O)O[C@H]2[C@H]1CC/C(COC(=O)N[C@H](Cc1c[nH]c3ccccc13)C(=O)OC)=C\CC[C@@]1(C)O[C@@H]21`, the GI50 in the assay on SNB-75 CNS is 8.35 µM; in the assay on IGROV1 ovarian, 1.85 µM; in the assay with MDA-MB-435 it was 2.52 µM; with SNB-19 CNS, 8.75 µM; with NCI-H522 lung it was 1.52 µM; in the assay with SK-MEL-2 melanoma it was 7.21 µM. Besides, the GI50 was 12.5 µM with HOP-62 NSCLC, 2.58 µM with SR leukemia, 1.36 µM in the assay on LOX IMVI melanoma and 2 µM in the assay with MDA-MB-231 breast. The TGI in the assay with SNB-75 CNS is 22.5 µM; with IGROV1 ovarian, 5.35 µM; in the assay with MDA-MB-435, 10 µM; with SNB-19 CNS it was 22.6 µM; with NCI-H522 lung, 3.22 µM; in the assay with SK-MEL-2 melanoma, 23.8 µM. Also, the TGI in the assay on HOP-62 NSCLC turned out to be 28.5 µM; with SR leukemia, 10.5 µM; in the assay on LOX IMVI melanoma, 2.85 µM; with MDA-MB-231 breast it was 5.59 µM.
Take `CCSCCCC(=O)O`: the TGI in the assay with SNB-75 CNS, in the assay on IGROV1 ovarian, in the assay with MDA-MB-435, with SNB-19 CNS, with NCI-H522 lung and in the assay with SK-MEL-2 melanoma was above 100 µM throughout. The TGI with HOP-62 NSCLC, in the assay with SR leukemia, with LOX IMVI melanoma and with MDA-MB-231 breast was above 100 µM in each case.
Take `Cc1nn(-c2ccccc2)c2nc(C)n(-c3ccc(Br)cc3)c(=O)c12`: the GI50 in the assay on SNB-75 CNS was 0.181 µM; with IGROV1 ovarian it was 0.584 µM; in the assay on MDA-MB-435 it was 0.226 µM; with SNB-19 CNS it was 0.547 µM; in the assay with NCI-H522 lung it was 0.326 µM; in the assay on SK-MEL-2 melanoma it was 0.654 µM. Further, the GI50 in the assay on HOP-62 NSCLC was 0.678 µM; with SR leukemia, 0.439 µM; with LOX IMVI melanoma, 0.51 µM; in the assay with MDA-MB-231 breast it was 1.45 µM. Besides, the TGI was 0.725 µM in the assay on SNB-75 CNS; above 100 µM in the assay with IGROV1 ovarian; 0.684 µM in the assay on MDA-MB-435; above 100 µM with SNB-19 CNS; 18.6 µM in the assay with NCI-H522 lung; above 100 µM in the assay on SK-MEL-2 melanoma. Besides, the TGI with HOP-62 NSCLC, in the assay with SR leukemia, in the assay on LOX IMVI melanoma and with MDA-MB-231 breast was above 100 µM throughout.
Take `C/C(=N\NC(=S)N1CCN(c2ccccn2)CC1)c1cccc2cccnc12`: the TGI in the assay on SNB-75 CNS is above 70.2 µM; in the assay with IGROV1 ovarian, above 100 µM; in the assay with MDA-MB-435 it was above 100 µM; with SNB-19 CNS, above 100 µM; with NCI-H522 lung, 9.63 µM; in the assay on SK-MEL-2 melanoma, 8.56 µM. The TGI was above 100 µM in the assay on HOP-62 NSCLC, above 38.7 µM in the assay with SR leukemia, above 100 µM in the assay with LOX IMVI melanoma and above 64.6 µM with MDA-MB-231 breast.
For the compound `Cc1cn2c(/C=C3\C(=O)N(C)c4ccc(Cl)cc43)c(C)nc2s1`, the GI50 with SNB-75 CNS was 2.52 µM; in the assay with IGROV1 ovarian it was 2.99 µM; in the assay on MDA-MB-435 it was 1.94 µM; in the assay on SNB-19 CNS, 4.25 µM; with NCI-H522 lung it was 2.76 µM; in the assay with SK-MEL-2 melanoma, 6.81 µM. Also, the GI50 in the assay with HOP-62 NSCLC is 5.6 µM; in the assay with SR leukemia, 0.226 µM; in the assay with LOX IMVI melanoma, 5.05 µM; in the assay with MDA-MB-231 breast, 4.5 µM. Also, the TGI in the assay on SNB-75 CNS is 7.32 µM; in the assay on IGROV1 ovarian, above 100 µM; with MDA-MB-435, 5.66 µM; in the assay with SNB-19 CNS it was 92.9 µM; with NCI-H522 lung it was 7.76 µM; with SK-MEL-2 melanoma it was above 100 µM. For the same compound, the TGI with HOP-62 NSCLC was 72 µM; in the assay on SR leukemia it was 1.52 µM; in the assay on LOX IMVI melanoma, above 100 µM; in the assay on MDA-MB-231 breast, 23.5 µM.
For the compound `Oc1ccc(/C=N/NC(=S)Nc2cccnc2)nc1`, the TGI is 97 µM in the assay with SNB-75 CNS; above 100 µM in the assay with IGROV1 ovarian; above 100 µM in the assay with MDA-MB-435; above 100 µM with SNB-19 CNS; 21.7 µM in the assay with NCI-H522 lung; above 100 µM in the assay on SK-MEL-2 melanoma. Moreover, the TGI with HOP-62 NSCLC was above 100 µM; in the assay on SR leukemia, 0.807 µM; with LOX IMVI melanoma, above 100 µM; in the assay on MDA-MB-231 breast, above 31.6 µM.
As for `CC(C)(C)OC(=O)N1Cc2cc3ccccc3nc2C1CO` (stereo not given), the GI50 with SNB-75 CNS, in the assay with IGROV1 ovarian, in the assay on MDA-MB-435, in the assay with SNB-19 CNS, in the assay with NCI-H522 lung and with SK-MEL-2 melanoma was above 100 µM throughout. Moreover, the GI50 in the assay with HOP-62 NSCLC, in the assay on SR leukemia, with LOX IMVI melanoma and with MDA-MB-231 breast was above 100 µM each time. Moreover, the TGI with SNB-75 CNS, with IGROV1 ovarian, with MDA-MB-435, in the assay on SNB-19 CNS, in the assay on NCI-H522 lung and in the assay on SK-MEL-2 melanoma was above 100 µM each time. The TGI with HOP-62 NSCLC, in the assay on SR leukemia, in the assay with LOX IMVI melanoma and in the assay with MDA-MB-231 breast was above 100 µM throughout.
With `CC1(C)CN(CCNc2nccc(-c3c(-c4cccc(O)c4)nc4sccn34)n2)S(=O)(=O)N1`, the GI50 was 5.14 µM in the assay on SNB-75 CNS; 6.58 µM with IGROV1 ovarian; 0.641 µM in the assay with MDA-MB-435; above 33.2 µM in the assay on SNB-19 CNS; 8.52 µM in the assay on NCI-H522 lung; 1.36 µM in the assay with SK-MEL-2 melanoma. The GI50 with HOP-62 NSCLC is 32.7 µM; in the assay with SR leukemia, 3.34 µM; in the assay on LOX IMVI melanoma it was 1.82 µM; in the assay on MDA-MB-231 breast, 7.94 µM. The TGI in the assay on SNB-75 CNS was above 33.2 µM; in the assay with IGROV1 ovarian, above 33.2 µM; in the assay on MDA-MB-435, above 33.2 µM; with SNB-19 CNS, above 33.2 µM; in the assay on NCI-H522 lung, above 33.2 µM; in the assay on SK-MEL-2 melanoma, 4.83 µM. In addition, the TGI in the assay with HOP-62 NSCLC, in the assay on SR leukemia, in the assay on LOX IMVI melanoma and in the assay on MDA-MB-231 breast was above 33.2 µM throughout.
On to `Cc1ccc2c(c1)C(O)(c1ccccc1)CCS2` (stereo not given), for which the TGI with SNB-75 CNS was above 100 µM; with IGROV1 ovarian, 65.7 µM; with MDA-MB-435, 73.2 µM; in the assay with SNB-19 CNS, above 100 µM; in the assay on NCI-H522 lung it was 44.6 µM; in the assay on SK-MEL-2 melanoma, 80.4 µM. The TGI was above 100 µM in the assay with HOP-62 NSCLC, 40.3 µM with SR leukemia, 36 µM with LOX IMVI melanoma and 39.8 µM with MDA-MB-231 breast.
